Reference: US6316498A, “Fluorine-containing amino acid derivatives” (Taisho Pharmaceutical Co., Ltd., priority 1998, dated 2001)

Test system: Methamphetamine-induced Hyperactivity in Mice
Experiment: Effect on Methamphetamine-induced Hyperactivity in Mice
Type: in vivo, male ICR-strain mice
Conditions: for Count (30-minute quantity of movement): 1 mg/kg methamphetamine; for Inhibition rate: vs group given solvent only; for ED50: Mus musculus, po, methamphetamine-induced hyperactivity; for inhibition of methamphetamine-induced hyperactivity (in words): ANOVA P<0.05, LY354740 except 0.01 mg/kg group
Procedure: (Effect on Methamphetamine-induced Hyperactivity in Mice)
11-12 male ICR-strain mice (body weights 23-32 g, Charles River Japan Inc.) were used for a group. The mice were housed in a transparent cylindrical measurement cage made of vinyl chloride (diameter 30 cm, height 30 cm) and were acclimated to their environment for 90 minutes.
Next, each of the compounds listed in Table 2 was orally administered to the mice, and 30 minutes later, 1 mg/kg methamphetamine was administered […]. 15 minutes later, the 30-minute quantity of movement of the mice was measured by a count, using an automatic movement measurement device (SCANET/SV-10, from Toyo Sangyo Co., Ltd.). Each listed compound was used suspended in a solvent consisting of 0.3% Tween 80 physiological saline solution.
The inhibition rate was determined from the count of the group of mice given solvent only and the count of the group of mice given each prescribed dosage of the compounds listed in Table 2, and the ED50 value was calculated. Statistical processing was done by analysis of variance (ANOVA), followed by Dunnet's test.

| Compound | Count (30-minute quantity of movement) (0.01 mg/kg p.o.) | Inhibition rate (0.01 mg/kg p.o.) [%] | Count (30-minute quantity of movement) (0.1 mg/kg p.o.) | Inhibition rate (0.1 mg/kg p.o.) [%] | Count (30-minute quantity of movement) (1 mg/kg p.o.) | Inhibition rate (1 mg/kg p.o.) [%] | Count (30-minute quantity of movement) (10 mg/kg p.o.) | Inhibition rate (10 mg/kg p.o.) [%] | ED50 [mg/kg] | inhibition of methamphetamine-induced hyperactivity (in words) (p.o.) | inhibition effect relative to LY354740 for methamphetamine-induced hyperactivity (p.o., vs LY354740, from ED50 values) [times] |
| --- | --- | --- | --- | --- | --- | --- | --- | --- | --- | --- | --- |
| N[C@@]1(C(=O)O)CC[C@H]2[C@H](C(=O)O)[C@H]21 [LY354740, (+) - (1S, 2S, 5R, 6S)-2-aminobicyclo[3.1.0]hexane-2,6-dicarboxylic acid] | 12000 ± 3216 | -18.8 | 6975 ± 1489 | 30.9 | 4534 ± 1116 | 55.1 | 3704 ± 1285 | 63.3 | 0.87 | the methamphetamine-induced hyperactivity was inhibited in a dose-dependent manner | – |
| N[C@]1(C(=O)O)[C@H]2[C@@H](C[C@@H]1F)[C@@H]2C(=O)O [Comp. 1, (1S,2S,3S,5R,6S)-2-amino-3-fluorobicyclo[3.1.0]hexane-2,6-dicarboxylic acid] | 9512 ± 3005 | 19.6 | 4291 ± 1283 | 63.7 | 2353 ± 733 | 80.1 | – | – | 0.05 | A similar effect is also seen | 17.4 |
